Measured values published in US10548895B2, “Ligands that target Plasmodium sporozoite binding sites on CD81 and therapeutic methods using them” (American University In Cairo (AUC), priority 2014, dated 2020).
Entries after “also recorded” stand apart in the source; their conditions may differ.

Legend:
Plasmodium berghei [1] = assay: Sporozoite infection assay, P. berghei in Hepa1-6 cells; type: cell-based; conditions: for effect on infection (in words): Hepa1-6 cells
Plasmodium berghei [2] = assay: Sporozoite infection assay, P. berghei in HepG2 cells; type: cell-based
CD81-LEL = biological target: T1, CD81-LEL (Homo sapiens, UniProt P60033); assay: Surface plasmon resonance binding of ligands to immobilized CD81-LEL; conditions: SPR; for Binding (change in response units): 3 min association; for Dissociation 1 (change in response units) / Dissociation 2 (change in response units): dissociation interval
T1 construct: A recombinant form of the CD81-LEL protein with a GST tag; gift of Dr. Shoshana Levy, Stanford University
T1 sequence (P60033 113-201 limits assumed): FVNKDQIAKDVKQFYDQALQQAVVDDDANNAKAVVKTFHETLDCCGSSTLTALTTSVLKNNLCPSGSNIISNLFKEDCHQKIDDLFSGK
Description: SPR analysis was performed using a Biacore T200 workstation (GE Healthcare, NJ, USA). A recombinant form of the CD81-LEL protein with a GST tag (generously provided by Dr. Shoshana Levy, Stanford University) was used to confirm, using an established experimental technique, the binding of several ligands to the protein. Briefly, 10 μM CD81-LEL-GST diluted into 10 mM Na-Acetate buffer pH 4.5 was immobilized for 15 min at a flow speed of 5 μl/min onto a CM5 sensor chip using amine-coupling (EDC-NHS), Approximately 20,000 RU of protein were immobilized on the chip. The ligands were prepared as 600 μM solutions in PBS-0.05% Tween-80 (the running buffer) and they were introduced to the protein using a pre-programmed 3 minute association and 1 minute dissociation interval.
SPR analysis was performed using a Biacore T100 workstation (GE Healthcare, NJ, USA). […] Approximately 20,000 RU of protein were immobilized on the chip. The ligands were prepared as 200 uM solutions in PBS-1% DMSO (the running buffer) and they were introduced to the protein using a pre-programmed 3 min association and 1 min dissociation interval.

Plasmodium yoelii [3] = assay: Sporozoite infection assay, P. yoelii in Hepa1-6 cells; type: cell-based
Plasmodium yoelii [4] = assay: Sporozoite development assay, P. yoelii in HepG2-CD81 cells; type: cell-based
Description: (§1) Anopheles stephensi mosquitoes were fed on mice infected with Plasmodium yoelii 17XNL parasites. On day 14 post bloodmeal, salivary glands were harvested, homogenized, sporozoite number was determined using a hemocytometer and the indicated number of sporozoites was added to cell monolayers, Plasmodium falciparum sporozoites were generated by membrane feeding An. stephensi mosquitoes using gametocyte cultures generated in vitro.
(§2) HepG2-CD81 (14) cells were maintained in DMEM supplemented with 10% fetal calf serum and 1 mM glutamine (DMEM/FCS), mAb 2E6 was used for development assays and is directed against Plasmodium Hsp 70 (15) and mAb 2A10 is directed against the repeat region of P. falciparum CSP and was used for invasion assays.
(§3) 5×10^5 HepG2-CD81 cells were plated on collagen coated Lab-Tek wells and allowed to adhere overnight. The following day, cells were preincubated with 400 uM of compound for 30 minutes at 37° C. Controls were pre-incubated with DMSO at the same concentration in which it was found in the compound solutions. 10^5 sporozoites were added to each well and in the case of P. falciparum, incubated for 1.5 hours and scored for invasion whereas in the case of P. yoelii, incubated for 44 hours and scored for exoerythrocytic stages.

[5] = biological target: T2, native CD81 on Raji cells (Homo sapiens, UniProt P60033); assay: Antibody neutralizing assay: inhibition of JS-81 anti-CD81 antibody binding on Raji cells (FACS); type: cell-based; conditions: Raji cells, read-out: Inhibition of JS-81 Binding (%); for inhibition at 50 µM: 50 μM ligand; for inhibition at 100 µM: 100 μM ligand; for inhibition at 400 µM: 400 μM ligand
T2 construct: endogenous in cells; host or cells: Raji cells (human B cell line)
T2 sequence (P60033 1-236): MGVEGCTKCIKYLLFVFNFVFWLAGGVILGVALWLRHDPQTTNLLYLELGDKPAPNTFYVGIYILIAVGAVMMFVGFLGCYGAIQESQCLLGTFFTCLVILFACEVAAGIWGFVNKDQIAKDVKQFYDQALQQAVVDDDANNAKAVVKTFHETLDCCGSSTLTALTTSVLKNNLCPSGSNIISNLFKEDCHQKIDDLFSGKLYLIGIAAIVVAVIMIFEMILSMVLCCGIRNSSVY
Description: For antibody neutralization assay Raji cells were used, a human B cell line that expressed high amounts of CD81 on the surface (data not shown), Cells were grown in RPMI medium (10% FCS, 1% penicillin/streptomycin, 1% L-glutamine, 1% non-essential amino acids, 1% sodium pyruvate, pH 7.4, at 37° C. with 5% CO2). 2×10^5 cells were incubated with or without different concentrations (50 μM, 100 μM, 400 μM and 1 mM) of indicated inhibitor for 20 min at room temperature, subsequently 1 ul (16 ng/μl) of FITC-labeled anti CD81 antibody (BD Pharmingen, 551108) was added to the cells and incubated for 20 min (antibody titration was performed to obtain a working dilution range, data not shown). Cells were washed and analyzed by FACS (BD FACSCalibur, software: Cell Quest Pro). Mean Fluorescence Intensity MFI was calculated using Flowjo software (TreesStar, www.flowjo.com).

Plasmodium falciparum = assay: Sporozoite invasion assay, P. falciparum in HepG2-CD81 cells; type: cell-based
Description: as §1, §2, §3

Row | Binding (change in response units) (CD81-LEL) | Dissociation 1 (change in response units) (CD81-LEL) | Dissociation 2 (change in response units) (CD81-LEL) | inhibition at 50 µM [5] | inhibition at 100 µM [5] | inhibition at 400 µM [5] | Structure (SMILES) | effect on infection (in words) (Plasmodium berghei [1]; P. berghei) | effect on infection (in words) (Plasmodium berghei [2]) | effect on infection (in words) (Plasmodium yoelii [3]; P. yoelii, Hepa1-6 cells) | effect on infection (in words) (Plasmodium yoelii [4]; P. yoelii, HepG2-CD81) | effect on infection (in words) (Plasmodium falciparum; P. falciparum) | Percent Infection (Plasmodium berghei [1]; Hepa1-6 Cells, Plasmodium berghei) | percentage of infection inhibition (Plasmodium berghei [1]; P. berghei, Hepa1-6) | Percent Infection (Plasmodium yoelii [3]; Hepa1-6 Cells, Plasmodium yoelii) | percentage of infection inhibition (Plasmodium yoelii [3]; P. yoelii, Hepa1-6) | Percent Infection (Plasmodium yoelii [4]; HepG2-CD81, Plasmodium yoelii, 400 uM compound) | percentage of infection inhibition (Plasmodium yoelii [4]; P. yoelii, HepG2-CD81) | Percent Infection (Plasmodium falciparum; HepG2-CD81, Plasmodium falciparum, 400 uM compound) | percentage of infection inhibition (Plasmodium falciparum; P. falciparum, HepG2-CD81)
1 | 52.5 response units | 50.8 response units | 43 response units | 0% | 8% | 26% | O=C(O)/C(=C\c1ccccc1)c1ccccc1 [Ligand 40614, 2,3-diphenylprop-2-enoate] | enhancing development | enhancing development | enhancing development | enhance the infection | wasn't found to enhance infection | – | – | – | – | – | – | – | –
2 | 43.6 response units | 14.7 response units | 10.1 response units | 0% | 0% | 19% | CCC(C)(C)c1ccc(Oc2cccc(C(=O)O)c2)cc1 [Ligand 7962] | Inhibition | – | – | inhibit; also recorded: strongest inhibitory effect | inhibit the infection | 0% | 100% | 0% | 100% | 0% | 100% | 0% | 100%
